# Measurements from patent US12268665B2, “Combination of immunotherapies with MDM2 inhibitors” (ASCENTAGE PHARMA (SUZHOU) CO., LTD., priority 2018, dated 2025).
# Where two headings read alike, the source gives them in different places.
# Tests used:
# [1] = system: MH-22A syngeneic tumor model; assay: Efficacy in the TIL analysis study, MH-22A model (d7); type: in vivo, mouse; settings: APG-115 10 mg/kg p.o. q2d; anti-PD-1 5 mg/kg i.p. biw; epacadostat 100 mg/kg p.o. bid; × 6 d
# Description: Each mouse was inoculated subcutaneously at the right flank region with MH-22A tumor cells (5×10^6) in 0.2 mL of PBS for tumor development. The treatments were started when the mean tumor size reached 60 mm^3. The test articles were administered to the tumor-bearing mice according to the regimen shown in the experimental design Table 6. The day of start dosing was defined as d1.
# Mice bearing MH-22A murine hepatoma tumors were treated with various agent(s) under different regimens as indicated. Isotype control antibody was included in the control.
# [2] = Pharmacokinetic (PK) analysis in MH-22A tumor-bearing mice (LC/MS/MS); type: in vivo, mouse; settings: for concentration at 4 h: oral
# Description: The quantitative LC/MS/MS analysis was conducted using an Exion HPLC system (AB Sciex, Ontario, Canada) coupled to an API 5500 mass spectrometer (AB Sciex, Ontario, Canada) equipped with an API electrospray ionization (ESI) source. The Phenomenex Titank phenyl-Hexyl column (50 mm×2.1 mm, 5 μm particle size) was used to achieved HPLC separation. The injection volume was 2 μl and the flow rate was kept constantly at 0.5 ml/min. Chromatography was performed with mobile phase A, acetonitrile:water:formic (5:95:0.1, by volume) and B, acetonitrile:water:formic (95:5:0.1, by volume). The mass spectrometer was operated at ESI positive ion mode for APG-115 while ESI negative mode for epacadostat. The detection of the ions was performed in the multiple reaction monitoring (MRM) mode, monitoring the transition of m/z 642.0→246.1 and 271.1→172.0 for APG-115 and IS (tolbutamide) in positive mode, 435.9→338.8 and 269.2→169.2 for epacadostat and IS (tolbutamide) in negative mode, respectively. Compounds parameters, declustering potential (DP), collision energy (CE) were 51, 61 V, 80, 18 V for APG-115 and IS in positive mode, −61, −15 V and −90, −23.5 V for epacadostat and IS in negative mode, respectively.
# Blood and tumor samples were collected from 5 mice/group in group-1, group-2, group-3 and group-5 4 hrs after the final dose on […]. Blood samples were collected from 5 mice/group in group-4, group-6, group-7 and group-8 4 hrs after the final dose on d29. Approximately 100 μl blood were collected in EDTA-2K tube and 50 μl plasma were collected for PK analysis. All samples were stored at −80° C. until analysis.
# In efficacy study of Example 2.1, mice in vehicle, APG-115 10 mg/kg and 50 mg/kg, and epacadostat single-agent groups were euthanized on d15 as described above. To assess PK characteristics of APG-115 and epacadostat in this study, plasma and tissue samples were collected 4 h after the last dosing on d15.
compound,measurement,setting,value
CCN1[C@@H](C(=O)NC23CCC(C(=O)O)(CC2)CC3)[C@H](c2cccc(Cl)c2F)[C@]2(C(=O)Nc3cc(Cl)ccc32)C12CCCCC2 [APG-115],RTV (Mean) d7,[1],12.8
same,T/C (%) d7,[1],83%
same,increases in systemic exposure and tissue distribution with dose,[2]; 10 vs 50 mg/kg,approximately dose proportional
same,pharmacokinetic interaction with anti-PD-1 antibody,"[2]; mouse, in vivo",no apparent pharmacokinetic interaction
same,concentration at 4 h,"[2]; mouse, plasma, 10 mg/kg, 10 mg/kg daily oral for 15 days, single agent, 4 h after last dosing, read-out: plasma concentration of APG-115",157 ng/mL
same,concentration at 4 h,"[2]; mouse, plasma, 10 mg/kg, 10 mg/kg in combination with anti-PD-1, read-out: plasma concentration of APG-115",120 ng/mL
same,concentration at 4 h,"[2]; mouse, plasma, 50 mg/kg, 50 mg/kg daily oral for 15 days, single agent, 4 h after last dosing, read-out: plasma concentration of APG-115",1230 ng/mL
same,concentration at 4 h,"[2]; mouse, plasma, 50 mg/kg, 50 mg/kg in combination with anti-PD-1, read-out: plasma concentration of APG-115",2150 ng/mL
same,concentration at 4 h,"[2]; mouse, tumor, 10 mg/kg, 10 mg/kg as single agent, read-out: APG-115 concentration in tumor tissues",152 ng/g
same,concentration at 4 h,"[2]; mouse, tumor, 50 mg/kg, 50 mg/kg as single agent, read-out: APG-115 concentration in tumor tissues",1470 ng/g
